Source: paper PMC10520499, “Next step in the development of mesoprogestins: the preclinical profile of EC313” (Frontiers in Endocrinology, 2023)

How the values were obtained:
[1] = target: T1, ligand binding domain of the human androgen receptor (AR-LBD) (Homo sapiens, UniProt P10275); experiment: Competitive binding, AR ligand binding domain
T1 construct: purchased Thermo Fisher Scientific
Experimental: (§1) The study aimed to characterize the competitive binding profile of EC313 to relevant human nuclear receptors. For the assays, commercially available ‘ligand binding domain’ proteins were purchased (Thermo Fisher Scientific). In addition, the full-length receptor proteins were expressed in transfected HI insect cells using the `Bac-to-bac Baculovirus expression system´ (Thermo Fisher Scientific). Cellular lysates served as receptor preparation. Receptor protein preparations were incubated with tritiated reference ligands and EC313 or reference steroids at concentrations between 0.1 and 1000 nM for 2h at 4°C to reach equilibrium. Subsequently, unbound steroids were adsorbed to dextran-coated charcoal (Sigma Aldrich), separated by filtration, and the remaining radioactivity was quantified in a ß-counter (Perkin Elmer). Displacement curves were fitted using the GraphPad Prism 7 free version to obtain EC50 values. Relative binding affinity (RBA [%], (C50ref/C50test)*100) and the competition coefficient (C50test/C50ref) were used to describe the relative binding potency of EC313 compared to the reference ligands.

[2] = test system: human progesterone receptor (full length, PRA); experiment: Competitive binding, full length human progesterone receptor; conditions: compared to progesterone
Experimental: as §1

[3] = test system: estrogen-primed endometrium of immature rabbits; experiment: McPhail assay, estrogen-primed rabbit endometrium; type: in vivo; conditions: 10 and 30 mg/animal/day; progesterone 1 mg/animal/day; p< 0.05
[4] = test system: progesterone receptor (PRA, PRB) in T47D cells; experiment: PR nuclear translocation in T47D cells (Western blot); type: cell-based, human; conditions: 100 nM, compared to Promegestone, Mifepristone or Asoprisnil
Experimental: Subsequently, progesterone receptors present in nuclear as well as cytosolic fractions were stained using Western blotting.
[…] (constitutively expressing the progesterone receptor) were treated with 100 nM of EC313 or reference compounds to activate PR. After 6h and after 24h cells were lysed, the nuclear and cytosolic fractions were separated and Western blots of these fractions were prepared.
Blots were stained for PRA and PRB as well as the housekeeping proteins GAPDH (as a marker for the cytosolic fraction) and histone H3 (as a marker for the nuclear fraction). Nuclear and cytoplasmic proteins from […] were extracted after cell stimulation with PR ligands and the nuclear and cytoplasmic fractions were analyzed for PRB and PRA content using Western blotting.

human PR-B receptor = target: T2, human PR-B receptor (Homo sapiens, UniProt P06401); experiment: PR-B transactivation (CHO, MMTV-LUC); type: cell-based
T2 sequence (P06401 1-933): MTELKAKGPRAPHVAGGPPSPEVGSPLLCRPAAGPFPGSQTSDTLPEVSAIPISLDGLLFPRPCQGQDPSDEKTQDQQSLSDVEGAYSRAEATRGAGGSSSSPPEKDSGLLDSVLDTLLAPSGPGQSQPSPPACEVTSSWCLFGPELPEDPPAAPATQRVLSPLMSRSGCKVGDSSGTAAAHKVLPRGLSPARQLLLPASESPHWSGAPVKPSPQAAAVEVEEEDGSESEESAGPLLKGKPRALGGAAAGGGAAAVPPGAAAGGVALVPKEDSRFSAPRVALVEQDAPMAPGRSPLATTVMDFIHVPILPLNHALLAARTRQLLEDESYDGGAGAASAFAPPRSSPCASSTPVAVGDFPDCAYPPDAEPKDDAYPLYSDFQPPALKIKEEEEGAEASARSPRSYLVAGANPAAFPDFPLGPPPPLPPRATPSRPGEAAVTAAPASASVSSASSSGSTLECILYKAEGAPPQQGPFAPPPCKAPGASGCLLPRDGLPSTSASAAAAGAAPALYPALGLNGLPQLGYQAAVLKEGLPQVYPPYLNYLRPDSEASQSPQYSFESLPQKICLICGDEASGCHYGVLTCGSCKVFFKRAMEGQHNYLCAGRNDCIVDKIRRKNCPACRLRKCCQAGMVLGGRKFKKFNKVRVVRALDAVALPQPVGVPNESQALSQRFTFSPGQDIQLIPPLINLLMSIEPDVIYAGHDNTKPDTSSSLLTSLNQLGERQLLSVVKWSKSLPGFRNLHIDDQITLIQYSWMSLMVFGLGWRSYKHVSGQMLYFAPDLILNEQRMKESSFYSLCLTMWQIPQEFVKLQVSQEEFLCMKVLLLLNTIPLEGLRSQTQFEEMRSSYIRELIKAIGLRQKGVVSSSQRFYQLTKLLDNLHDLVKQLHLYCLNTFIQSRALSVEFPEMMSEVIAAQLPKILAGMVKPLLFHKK
Excerpt: The vector pcDNA3.1 coding sequence for the full length of human PRA and PRB (cDNA ORF clone in pcDNA3.1+/C-(K)-DYK) was used as an expression vector for PR isoform A and B, respectively. Vector pGL4.36 coding for the progesterone responsive element MMTV and firefly luciferase reporter vector [luc2P/Hygro] were used as reporter systems (pGL4.36-MMTV/LUC).
A sufficient transactivation signal was achieved using stable transfection for the human PRA and PRB receptors and transient transfection for the MMTV-luciferase reporter gene. Therefore, the first stable transfection with the receptor of interest was performed. Thus, 0.5x10^6 CHO cells per well were plated into 6-well plates in transfection medium w/o antibiotics (RPMI phenol-free, 10% FBS,2mM L-glutamine). When the cells reached 80% confluency, transfection with receptor using FuGENE 6 in Opti-MEM medium was accomplished according to the manufacturer’s instruction. After 48h of transfection, stably transfected cells were cultured in a growth medium containing an antibiotic (G418 500 µg/mL). Only cells with the resistance gene (resistance to G418), which had been transfected together with the DNA for PRA and PRB were able to grow in this medium. Consequently, growing cell clones were selected for further steps as stable transfectants. The CHO cells stably transfected with the expression of PRA or PRB were transiently transfected with promoter MMTV/LUC vectors. For this purpose, cells with a density of 12.5x10^3 per well in a 96-well plate were transfected using transfection reagent FuGENE and Opti-MEM medium, following the manufacturer’s instructions. The recovery of cells lasted 24h and they were then moved into the culture medium and treated for 24h with test compounds.
After 24h incubation of cells with tested compounds, luciferase activity was measured using a VICTOR™ X Multilabel Plate Reader -Perkin Elmer.

[5] = test system: human endometriotic tissue grafts; experiment: Human endometriotic xenografts in immunodeficient mice; type: in vivo; conditions: s.c. once daily 14 days; EC313 0,01, 0.1, 1 mg/animal/day; Ulipristal acetate 1 mg/animal/day; vs vehicle control
Excerpt: Endometriosis is one of the expected clinical target indications for the development of EC313. But, there are no reliable pre-clinical models known at present. From all experimental approaches, the transplantation of human endometriotic tissue into immunodeficient mice resembles the clinical situation to some extent closely. Treatment of EC313 was compared with UPA as a reference compound. Two to four small pieces of human endometriotic tissue were placed into a s.c. pouch in the pelvic area of each of the ovariectomized mice. At the same time, an E2-releasing pellet (0.36 mg/pellet/60 days) was implanted s.c. in the neck of the mice. Furthermore, 2 weeks after implantation, the mice were treated with once-daily s.c. injections of vehicle, EC313 (0,01, 0.1, and 1 mg/animal/day), or Ulipristal acetate (1 mg/animal/day) for 14 days. The mice were sacrificed 24 hours after the last injection and all identified endometriotic grafts were resected, weighed, and subjected to visual examination.

T1 sequence (P10275 669-900 limits assumed): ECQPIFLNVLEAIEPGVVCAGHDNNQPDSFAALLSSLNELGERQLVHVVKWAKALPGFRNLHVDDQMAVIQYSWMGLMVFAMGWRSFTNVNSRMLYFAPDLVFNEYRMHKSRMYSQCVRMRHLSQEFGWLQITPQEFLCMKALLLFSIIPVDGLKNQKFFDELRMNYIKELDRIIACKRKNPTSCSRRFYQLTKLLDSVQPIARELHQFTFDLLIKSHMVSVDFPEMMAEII

`C[C@]12C[C@H](c3ccc(-c4ccoc4)cc3)C3=C4CCC(=O)C=C4CC[C@H]3[C@@H]1CC[C@]21OCCC1=C(F)F` [EC313] was tested, and the IC50 ([1]; AR-LBD) was 1060 nM, the “AR-LBD Comp. Coefficient” value ([1]; EC313 relative to Metribolone) was 17 and the competition coefficient [2] was 3.4. The “antagonistic action with co-administered progesterone” value [3] was “significant”, the “receptors retained in the nuclear fraction after 24 hours” value [4] was “retained more receptors in the nuclear fraction” and the “potency relative to Mifepristone” value (human PR-B receptor; PR-B antagonism) was “approximately 13%”. For the same compound, the agonistic activity (human PR-B receptor; PR-B, high nM concentrations) was “Only marginal agonistic activity”, the IC50 (human PR-B receptor; PR-B, set of 6 experiments, Promegestone 1.0 nM, read-out: average IC50, antagonism) was 2.5 ± 0.7 nM and the “weights of human endometriotic tissue grafts” value [5] was “significantly lower weights of the grafts”.
